Measurements: ChEMBL document CHEMBL2429821, “A Casein kinase 1/Checkpoint kinase 1 pyrazolo-pyridine protein kinase inhibitor as novel activator of the p53 pathway” (Bioorg Med Chem Lett, 2013)

Assays:
[1] = target: 3-phosphoinositide-dependent protein kinase 1 (Homo sapiens) (UniProt O15530); experiment: Inhibition of human PDK1 assessed as residual activity at 10 uM relative to control
[2] = target: Dual specificity tyrosine-phosphorylation-regulated kinase 1A (Rattus norvegicus) (UniProt Q63470); experiment: Inhibition of rat DYRK1alpha assessed as residual activity at 1 uM relative to control
[3] = target: Ribosomal protein S6 kinase beta-1 (Homo sapiens) (UniProt P23443); experiment: Inhibition of human S6K1 assessed as residual activity at 10 uM relative to control
[4] = target: Proto-oncogene tyrosine-protein kinase Src (Homo sapiens) (UniProt P12931); experiment: Inhibition of human SRC assessed as residual activity at 1 uM relative to control
Sequence of Proto-oncogene tyrosine-protein kinase Src (Homo sapiens) (P12931 2-536 limits assumed): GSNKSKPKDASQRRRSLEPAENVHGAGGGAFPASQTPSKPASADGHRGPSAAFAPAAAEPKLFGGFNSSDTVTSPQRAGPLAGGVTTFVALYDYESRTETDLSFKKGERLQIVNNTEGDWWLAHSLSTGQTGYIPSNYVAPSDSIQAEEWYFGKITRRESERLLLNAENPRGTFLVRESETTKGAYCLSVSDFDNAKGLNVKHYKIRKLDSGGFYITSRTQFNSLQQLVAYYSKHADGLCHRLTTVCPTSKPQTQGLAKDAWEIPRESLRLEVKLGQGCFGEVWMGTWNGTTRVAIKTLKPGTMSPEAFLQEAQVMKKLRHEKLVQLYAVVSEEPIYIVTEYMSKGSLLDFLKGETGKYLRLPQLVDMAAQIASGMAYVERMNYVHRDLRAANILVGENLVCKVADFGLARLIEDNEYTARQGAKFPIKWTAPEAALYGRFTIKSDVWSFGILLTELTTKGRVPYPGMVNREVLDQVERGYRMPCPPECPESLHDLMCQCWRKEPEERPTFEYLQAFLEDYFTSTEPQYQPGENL

[5] = target: Serine/threonine-protein kinase Chk2 (Homo sapiens) (UniProt O96017); experiment: Inhibition of human CHK2 assessed as residual activity at 1 uM relative to control
Sequence of Serine/threonine-protein kinase Chk2 (Homo sapiens) (O96017 whole entry): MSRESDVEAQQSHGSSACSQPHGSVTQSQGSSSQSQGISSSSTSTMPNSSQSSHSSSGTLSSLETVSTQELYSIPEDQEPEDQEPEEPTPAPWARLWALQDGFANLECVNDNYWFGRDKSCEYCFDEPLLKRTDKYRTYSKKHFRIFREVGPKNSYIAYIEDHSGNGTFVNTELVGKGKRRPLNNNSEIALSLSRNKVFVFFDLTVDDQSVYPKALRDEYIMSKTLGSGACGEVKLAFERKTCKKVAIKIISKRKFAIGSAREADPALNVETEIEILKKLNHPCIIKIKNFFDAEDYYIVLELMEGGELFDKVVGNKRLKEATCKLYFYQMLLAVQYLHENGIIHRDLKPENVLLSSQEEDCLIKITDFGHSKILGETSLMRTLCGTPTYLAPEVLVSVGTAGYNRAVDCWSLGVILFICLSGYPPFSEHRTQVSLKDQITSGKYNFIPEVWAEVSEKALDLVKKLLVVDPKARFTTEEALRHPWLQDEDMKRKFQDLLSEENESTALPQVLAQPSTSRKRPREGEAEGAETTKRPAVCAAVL

[6] = target: Ribosomal protein S6 kinase alpha-3 (Homo sapiens) (UniProt P51812); experiment: Inhibition of human RSK2 assessed as residual activity at 1 uM relative to control
[7] = target: RAC-alpha serine/threonine-protein kinase (Homo sapiens) (UniProt P31749); experiment: Inhibition of human PKBalpha assessed as residual activity at 10 uM relative to control
Sequence of RAC-alpha serine/threonine-protein kinase (Homo sapiens) (P31749 whole entry): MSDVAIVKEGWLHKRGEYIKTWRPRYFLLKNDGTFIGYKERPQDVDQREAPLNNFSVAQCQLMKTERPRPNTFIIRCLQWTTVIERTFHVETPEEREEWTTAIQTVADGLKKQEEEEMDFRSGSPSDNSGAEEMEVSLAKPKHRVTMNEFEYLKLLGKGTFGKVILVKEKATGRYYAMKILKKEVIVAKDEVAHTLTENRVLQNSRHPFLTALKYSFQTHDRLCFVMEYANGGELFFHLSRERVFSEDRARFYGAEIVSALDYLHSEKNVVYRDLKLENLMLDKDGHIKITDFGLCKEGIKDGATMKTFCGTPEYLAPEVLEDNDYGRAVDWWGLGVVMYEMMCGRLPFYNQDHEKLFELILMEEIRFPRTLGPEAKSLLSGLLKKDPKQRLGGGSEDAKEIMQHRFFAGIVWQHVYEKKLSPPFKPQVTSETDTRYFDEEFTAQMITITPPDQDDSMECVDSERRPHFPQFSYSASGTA

[8] = target: T1, Serine/threonine-protein kinase D1 (Homo sapiens) (UniProt Q15139); experiment: Inhibition of human PKD1 assessed as residual activity at 10 uM relative to control
T1 sequence (whole entry): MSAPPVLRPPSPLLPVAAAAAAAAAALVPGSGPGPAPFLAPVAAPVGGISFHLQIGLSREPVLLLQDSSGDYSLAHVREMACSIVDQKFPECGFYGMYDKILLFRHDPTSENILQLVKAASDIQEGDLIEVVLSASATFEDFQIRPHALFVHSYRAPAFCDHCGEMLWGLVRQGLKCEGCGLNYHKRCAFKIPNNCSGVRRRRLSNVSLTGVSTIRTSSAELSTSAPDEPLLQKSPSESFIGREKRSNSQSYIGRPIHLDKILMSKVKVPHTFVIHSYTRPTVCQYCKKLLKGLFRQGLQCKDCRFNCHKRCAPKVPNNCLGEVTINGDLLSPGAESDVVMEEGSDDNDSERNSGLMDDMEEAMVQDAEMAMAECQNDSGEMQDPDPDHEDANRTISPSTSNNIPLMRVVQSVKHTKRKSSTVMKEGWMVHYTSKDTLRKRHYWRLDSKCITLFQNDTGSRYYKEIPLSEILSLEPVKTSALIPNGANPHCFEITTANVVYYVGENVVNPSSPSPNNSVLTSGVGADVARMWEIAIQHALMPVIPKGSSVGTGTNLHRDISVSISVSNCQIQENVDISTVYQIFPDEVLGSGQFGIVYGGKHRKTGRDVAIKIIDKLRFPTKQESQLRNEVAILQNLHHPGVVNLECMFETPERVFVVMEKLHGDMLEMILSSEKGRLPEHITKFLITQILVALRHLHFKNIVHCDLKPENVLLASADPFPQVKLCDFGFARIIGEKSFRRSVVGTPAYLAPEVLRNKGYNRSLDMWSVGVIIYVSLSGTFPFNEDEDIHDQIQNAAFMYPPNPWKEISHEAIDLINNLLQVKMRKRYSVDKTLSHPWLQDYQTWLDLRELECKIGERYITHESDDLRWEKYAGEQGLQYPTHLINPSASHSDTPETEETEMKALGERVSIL

[9] = target: Serine/threonine-protein kinase PLK1 (Homo sapiens) (UniProt P53350); experiment: Inhibition of human PLK1 assessed as residual activity at 1 uM relative to control
[10] = target: Protein kinase C alpha type (Homo sapiens) (UniProt P17252); experiment: Inhibition of human PKCalpha assessed as residual activity at 10 uM relative to control
[11] = target: Tyrosine-protein kinase CSK (Homo sapiens) (UniProt P41240); experiment: Inhibition of human CSK assessed as residual activity at 1 uM relative to control
Sequence of Tyrosine-protein kinase CSK (Homo sapiens) (P41240 2-450 limits assumed): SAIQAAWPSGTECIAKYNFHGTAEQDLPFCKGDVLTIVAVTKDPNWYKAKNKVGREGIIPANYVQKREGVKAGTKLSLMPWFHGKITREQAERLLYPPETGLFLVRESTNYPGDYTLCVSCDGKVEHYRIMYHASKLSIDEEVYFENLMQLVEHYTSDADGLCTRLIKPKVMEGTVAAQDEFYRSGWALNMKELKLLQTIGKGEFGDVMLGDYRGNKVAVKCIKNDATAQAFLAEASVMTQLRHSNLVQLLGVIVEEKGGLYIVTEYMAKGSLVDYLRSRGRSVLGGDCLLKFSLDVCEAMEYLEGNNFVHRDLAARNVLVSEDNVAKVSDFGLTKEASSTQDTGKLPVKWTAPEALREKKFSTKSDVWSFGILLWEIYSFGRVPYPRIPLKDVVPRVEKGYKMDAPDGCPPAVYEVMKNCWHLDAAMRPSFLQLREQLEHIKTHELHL

[12] = target: Homeodomain-interacting protein kinase 2 (Homo sapiens) (UniProt Q9H2X6); experiment: Inhibition of human HIPK2 assessed as residual activity at 10 uM relative to control
Sequence of Homeodomain-interacting protein kinase 2 (Homo sapiens) (Q9H2X6 whole entry, looked up): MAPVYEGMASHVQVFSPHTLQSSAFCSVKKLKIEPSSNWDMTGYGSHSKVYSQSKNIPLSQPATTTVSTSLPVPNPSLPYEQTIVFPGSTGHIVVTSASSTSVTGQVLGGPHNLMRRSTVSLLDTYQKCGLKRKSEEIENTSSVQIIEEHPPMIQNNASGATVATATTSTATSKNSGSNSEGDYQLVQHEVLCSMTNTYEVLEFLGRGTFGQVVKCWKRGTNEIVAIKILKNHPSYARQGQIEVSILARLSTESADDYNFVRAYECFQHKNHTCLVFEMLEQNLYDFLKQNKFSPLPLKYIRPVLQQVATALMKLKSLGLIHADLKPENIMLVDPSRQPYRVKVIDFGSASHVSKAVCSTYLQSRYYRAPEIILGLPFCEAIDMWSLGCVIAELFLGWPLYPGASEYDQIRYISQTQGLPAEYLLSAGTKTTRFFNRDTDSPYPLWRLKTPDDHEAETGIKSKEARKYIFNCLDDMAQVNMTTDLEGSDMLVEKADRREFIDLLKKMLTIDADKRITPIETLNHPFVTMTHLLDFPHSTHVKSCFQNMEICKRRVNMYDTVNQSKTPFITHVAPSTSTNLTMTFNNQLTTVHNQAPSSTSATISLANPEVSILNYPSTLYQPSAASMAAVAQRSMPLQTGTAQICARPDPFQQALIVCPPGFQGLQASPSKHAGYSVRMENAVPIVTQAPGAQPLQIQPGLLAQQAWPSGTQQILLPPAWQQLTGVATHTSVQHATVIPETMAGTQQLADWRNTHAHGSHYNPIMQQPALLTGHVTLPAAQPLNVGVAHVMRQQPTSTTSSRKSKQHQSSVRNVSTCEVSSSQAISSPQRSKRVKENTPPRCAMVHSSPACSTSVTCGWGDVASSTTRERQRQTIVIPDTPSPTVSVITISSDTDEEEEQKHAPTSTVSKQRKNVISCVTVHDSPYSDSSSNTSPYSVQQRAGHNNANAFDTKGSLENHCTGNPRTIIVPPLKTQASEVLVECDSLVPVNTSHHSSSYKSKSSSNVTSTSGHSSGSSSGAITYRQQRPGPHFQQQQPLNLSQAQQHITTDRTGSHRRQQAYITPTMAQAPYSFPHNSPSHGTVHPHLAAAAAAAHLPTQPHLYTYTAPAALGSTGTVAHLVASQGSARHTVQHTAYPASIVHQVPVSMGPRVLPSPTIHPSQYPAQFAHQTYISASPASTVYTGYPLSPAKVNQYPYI

[13] = target: T2, Serine/threonine-protein kinase TBK1 (Homo sapiens) (UniProt Q9UHD2); experiment: Inhibition of human TBK1 assessed as residual activity at 1 uM relative to control
T2 sequence (whole entry): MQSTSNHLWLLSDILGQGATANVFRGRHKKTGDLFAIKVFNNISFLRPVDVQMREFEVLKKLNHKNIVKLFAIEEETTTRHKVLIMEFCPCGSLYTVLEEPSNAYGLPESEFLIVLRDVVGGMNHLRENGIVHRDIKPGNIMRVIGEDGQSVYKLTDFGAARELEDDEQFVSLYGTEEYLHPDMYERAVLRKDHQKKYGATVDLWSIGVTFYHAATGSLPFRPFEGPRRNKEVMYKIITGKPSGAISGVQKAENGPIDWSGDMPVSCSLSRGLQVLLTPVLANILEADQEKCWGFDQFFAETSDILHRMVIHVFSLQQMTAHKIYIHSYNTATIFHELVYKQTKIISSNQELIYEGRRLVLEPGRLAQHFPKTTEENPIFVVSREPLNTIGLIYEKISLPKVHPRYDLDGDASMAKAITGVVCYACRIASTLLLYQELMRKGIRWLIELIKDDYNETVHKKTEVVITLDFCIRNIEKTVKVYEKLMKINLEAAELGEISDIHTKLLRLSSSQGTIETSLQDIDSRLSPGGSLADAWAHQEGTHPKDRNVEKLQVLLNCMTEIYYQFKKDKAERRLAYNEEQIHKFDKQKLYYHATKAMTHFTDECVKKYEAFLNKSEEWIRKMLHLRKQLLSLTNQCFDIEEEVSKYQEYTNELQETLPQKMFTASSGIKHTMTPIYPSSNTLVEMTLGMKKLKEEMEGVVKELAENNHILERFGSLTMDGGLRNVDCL

[14] = target: Insulin-like growth factor 1 receptor (Homo sapiens) (UniProt P08069); experiment: Inhibition of human IGF-1R assessed as residual activity at 10 uM relative to control
Sequence of Insulin-like growth factor 1 receptor (Homo sapiens) (P08069 31-736 limits assumed): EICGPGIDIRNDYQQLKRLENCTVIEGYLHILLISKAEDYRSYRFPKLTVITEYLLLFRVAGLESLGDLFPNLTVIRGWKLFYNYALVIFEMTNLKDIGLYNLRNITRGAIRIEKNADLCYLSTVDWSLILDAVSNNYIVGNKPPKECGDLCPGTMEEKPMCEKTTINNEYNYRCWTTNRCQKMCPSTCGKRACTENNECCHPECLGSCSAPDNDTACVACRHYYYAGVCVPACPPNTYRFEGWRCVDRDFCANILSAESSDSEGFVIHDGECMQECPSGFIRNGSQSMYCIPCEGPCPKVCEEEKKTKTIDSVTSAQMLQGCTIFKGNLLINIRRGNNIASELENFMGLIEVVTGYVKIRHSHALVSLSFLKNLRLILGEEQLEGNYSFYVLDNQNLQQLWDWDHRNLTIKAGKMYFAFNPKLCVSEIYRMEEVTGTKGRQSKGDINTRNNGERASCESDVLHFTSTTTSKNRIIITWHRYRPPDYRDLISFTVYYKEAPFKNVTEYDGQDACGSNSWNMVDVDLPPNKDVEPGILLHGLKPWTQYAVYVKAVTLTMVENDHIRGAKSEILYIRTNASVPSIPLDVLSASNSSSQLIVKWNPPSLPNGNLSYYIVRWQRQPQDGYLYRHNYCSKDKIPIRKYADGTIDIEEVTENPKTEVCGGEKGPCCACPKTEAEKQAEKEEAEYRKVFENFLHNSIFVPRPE
Sequence of Insulin-like growth factor 1 receptor (Homo sapiens) (P08069 741-1367 limits assumed): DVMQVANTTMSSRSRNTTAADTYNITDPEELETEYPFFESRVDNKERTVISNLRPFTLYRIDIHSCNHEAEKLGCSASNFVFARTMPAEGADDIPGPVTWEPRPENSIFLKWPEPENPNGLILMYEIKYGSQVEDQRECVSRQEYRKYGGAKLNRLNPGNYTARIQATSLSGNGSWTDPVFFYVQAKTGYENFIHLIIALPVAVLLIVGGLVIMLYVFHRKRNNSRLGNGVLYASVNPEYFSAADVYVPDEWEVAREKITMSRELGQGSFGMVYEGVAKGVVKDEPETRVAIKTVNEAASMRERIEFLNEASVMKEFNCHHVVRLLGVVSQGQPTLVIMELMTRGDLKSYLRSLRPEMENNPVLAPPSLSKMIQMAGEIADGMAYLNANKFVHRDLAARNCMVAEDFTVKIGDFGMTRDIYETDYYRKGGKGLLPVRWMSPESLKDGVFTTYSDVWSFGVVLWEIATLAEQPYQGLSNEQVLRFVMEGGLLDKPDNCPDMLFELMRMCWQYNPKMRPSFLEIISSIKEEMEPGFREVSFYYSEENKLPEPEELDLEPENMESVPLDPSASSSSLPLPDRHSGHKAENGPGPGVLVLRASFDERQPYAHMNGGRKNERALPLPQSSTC

[15] = species: Oryctolagus cuniculus; experiment: Inhibition of rabbit MKK1 assessed as residual activity at 1 uM relative to control
[16] = target: Casein kinase I isoform delta (Rattus norvegicus) (UniProt Q06486); experiment: Inhibition of rat CK1delta assessed as residual activity at 10 uM relative to control
Sequence of Casein kinase I isoform delta (Rattus norvegicus) (Q06486 whole entry, looked up, canonical isoform): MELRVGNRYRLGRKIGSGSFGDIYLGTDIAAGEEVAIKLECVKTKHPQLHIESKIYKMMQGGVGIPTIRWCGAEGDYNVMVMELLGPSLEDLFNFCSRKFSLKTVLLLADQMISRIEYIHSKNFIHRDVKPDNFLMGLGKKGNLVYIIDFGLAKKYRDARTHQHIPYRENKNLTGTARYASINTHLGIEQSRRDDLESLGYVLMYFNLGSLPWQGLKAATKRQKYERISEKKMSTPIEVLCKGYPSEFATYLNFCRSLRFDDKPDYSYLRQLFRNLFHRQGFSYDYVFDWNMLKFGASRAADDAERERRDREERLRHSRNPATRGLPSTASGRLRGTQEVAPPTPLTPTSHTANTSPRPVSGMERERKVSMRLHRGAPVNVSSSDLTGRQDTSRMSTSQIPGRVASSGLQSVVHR

[17] = species: Bos taurus; experiment: Inhibition of cow PKA assessed as residual activity at 10 uM relative to control
[18] = target: Tyrosine-protein kinase SYK (Homo sapiens) (UniProt P43405); experiment: Inhibition of human SYK assessed as residual activity at 1 uM relative to control
[19] = target: Cyclin-dependent kinase 2 (Homo sapiens) (UniProt P24941); experiment: Inhibition of human CDK2 assessed as residual activity at 10 uM relative to control
[20] = target: Mitogen-activated protein kinase 8 (Homo sapiens) (UniProt P45983); experiment: Inhibition of human JNK1 assessed as residual activity at 1 uM relative to control

SMILES | Activity [1] | Activity [2] | Activity [3] | Activity [4] | Activity [5] | Activity [6] | Activity [7] | Activity [8] | Activity [9] | Activity [10] | Activity [11] | Activity [12] | Activity [13] | Activity [14] | Activity [15] | Activity [16] | Activity [17] | Activity [18] | Activity [19] | Activity [20]
CCCC(=O)Nc1n[nH]c2ncc(-c3cccnc3)cc12 | 98% | 5% | 88% | 75% | 96% | 92% | 91% | 99% | 97% | 81% | 91% | 31% | 91% | 92% | 90% | 84% | 94% | 99% | 5% | 97%
CC(=O)Nc1nccc(-c2c(-c3ccccc3)noc2C)n1 | 66% | 91.9% | 99.9% | 98.3% | 89.5% | 78.7% | 115% | 75.3% | 76% | 99.9% | 93.4% | 94.2% | 106% | 92.5% | 95.1% | 7.2% | 92.8% | 69% | 104% | 67%
CC(=O)Nc1cccc(-c2cnc3[nH]nc(C)c3c2)c1 | 70.4% | 76.2% | 69.8% | 65% | 68.5% | 93.8% | 51.1% | 44.3% | 106% | 104% | 95.3% | 42.4% | 88.9% | 12.5% | 75.7% | 10% | 83.3% | 115% | 40.3% | 93.3%
